Here are results for 13 compounds from PubChem BioAssay (NCI).

What all share (assay): NCI anticancer screen, dose series, 48 h
Test [1] concerns EKVX NSCLC.
In test [2] the test system is SR leukemia.
Test [3] concerns UACC-62 melanoma.
Test [4] relates to T-47D breast.
The subject of test [5] is SK-OV-3 ovarian.
Test [6] has as its system SK-MEL-5 melanoma.
In test [7] the test system is HOP-62 NSCLC.
The subject of test [8] is RXF 393 renal.
The test system of test [9] is IGROV1 ovarian.
The subject of test [10] is MDA-N.

Where “and” joins values, the source holds several entries; their conditions need not be identical. Equal values may be shown once.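 Step 1: Grow cells in 96-well plates. Step 2: Expose to compound for 48 hours at 5 concentrations. Step 3: Interpolate endpoints linearly; if unreached, use highest concentration. At the GI50, growth is halved. Definition used: TGI = concentration required for complete inhibition of growth.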

`CC(C)C[S+]1C2=C([O-])CC(C)(C)CC2=Nc2ccccc21` (stereo not given): the TGI in [1] was greater than 100 µM; in [2], 75.8 µM; in test [3], greater than 100 µM; in test [4], greater than 100 µM; in test [5], greater than 100 µM; in [6] it was greater than 100 µM. The TGI in test [7], in [8], in [9] and in test [10] was greater than 100 µM each time.
Take `COc1ccccc1C1C2=C(COC2=O)Oc2cc3c(cc21)OCO3` (stereo not given): the TGI is greater than 42.8 µM in [1]; greater than 100 µM in test [2]; greater than 100 µM in test [3]; greater than 100 µM in test [4]; 45.9 µM in [5]; greater than 100 µM in test [6]. The TGI in test [7] is greater than 100 µM; in [8] it was 6.13 µM; in [9], greater than 100 µM; in [10], 0.763 µM.
In the case of `COc1ccc(/C=C2/N=C(N/N=C\C(O)C(O)C(O)CO)NC2=O)cc1` (stereo not given), the TGI in test [1], in test [2], in test [4], in test [5], in test [6] and in [7] was greater than 100 µM each time. For the same compound, the TGI in test [8], in test [9] and in test [10] was greater than 100 µM each time. Moreover, the GI50 in test [4] was 87.7 µM and 33.2 µM; in [6], > 100 µM and 41.6 µM; in test [7] it was > 100 µM and 49.6 µM.
`O=C1CC(c2ccc(Cl)cc2)C2(C(=O)NC(=S)NC2=O)C(c2ccc(Cl)cc2)C1` (stereo not given): the TGI in test [1] was 91.7 µM; in test [2] it was greater than 100 µM; in test [3], 34.4 µM; in test [4] it was 74.1 µM; in test [5], 29 µM; in [6], 33.1 µM. Moreover, the figures for the TGI in test [7], in test [8] and in [10] were 54.7 µM, 29.4 µM and 34.1 µM, respectively.
Consider `O=S(=O)(O)c1ccc2c(N=Nc3cccc4ccccc34)c(O)ccc2c1`, for which the TGI in [1], in [2], in test [3], in [4], in test [5] and in test [6] was greater than 100 µM in each case. Moreover, the TGI in test [7], in test [8], in [9] and in test [10] was greater than 100 µM in each case.
Take `CCOC(=O)c1c(N2CCCC2)[nH]c(=O)c(C(c2c(O)c(C(=O)OCC)c(N3CCCC3)[nH]c2=O)C(C)C)c1O`: the TGI in test [1], in test [2], in test [3], in [4], in test [5] and in test [6] was greater than 100 µM throughout. Besides, the TGI in test [7], in test [8] and in [10] was greater than 100 µM each time.
`c1ccc(CN2CCC(=NN3CCCCC3)CC2)cc1`: the TGI in test [1], in test [2], in test [3], in test [4], in test [5] and in [6] was greater than 100 µM each time. The TGI in test [7], in test [8], in test [9] and in test [10] was greater than 100 µM in each case.
On to `CC12NC(=C(C#N)C#N)C(C#N)=C3NC(N)=C(C#N)C(=C31)Oc1ccccc12` (stereo not given), for which the TGI in test [1] is greater than 100 µM; in test [2] it was greater than 100 µM; in test [3], greater than 100 µM; in test [4], greater than 100 µM; in [5], greater than 100 µM; in test [6], greater than 22.9 µM. In addition, the TGI in [7] is greater than 38.3 µM; in test [8], 6.76 µM; in test [9], greater than 100 µM; in [10] it was greater than 31.6 µM.
On to `O=[N+]([O-])c1cc(Br)cc2cc(Cl)cnc12`, for which the TGI in [1], in [2], in test [3], in [4], in test [5] and in test [6] was greater than 100 µM each time. Also, the TGI in test [7] was greater than 100 µM; in test [8], greater than 100 µM; in test [9], 24.2 µM; in test [10], greater than 100 µM.
On to `C=C1CC[C@@]2(C)[C@@H]([C@@H]1C)[C@H]1CC[C@@H]3[C@@]4(C)CC[C@H](O)C(C)(C)[C@@H]4CC[C@@]3(C)[C@]1(C)C[C@@H]2O`, for which the TGI in test [1] is 7.22 µM; in test [2], greater than 100 µM; in [3], 28.2 µM; in test [4], 8.76 µM; in test [5] it was 51.3 µM; in test [6] it was greater than 50.3 µM. The TGI in test [7] is 9.18 µM; in test [8], 4.04 µM; in test [9], 3.77 µM; in test [10] it was greater than 51.5 µM.
With `CN1C(=O)N(C)C2(CCN(CC(CC3OCCO3)c3ccc(F)cc3)CC2)C1=O` (stereo not given), the TGI in test [1], in test [2], in [3], in test [4], in [5] and in [6] was greater than 100 µM each time. In addition, the TGI in test [7], in [8], in test [9] and in [10] was greater than 100 µM in each case.
In the case of `COc1ccc(C=Nc2ccc(-c3nc4ccccc4s3)cc2)cc1OC`, the TGI was greater than 100 µM in [1]; greater than 100 µM in test [2]; 47.2 µM in test [3]; 81.2 µM in [4]; greater than 100 µM in test [5]; 30.8 µM in test [6]. Moreover, the TGI in test [7] stood at 39.2 µM; in test [8], 62.4 µM; in test [9], 86.4 µM; in test [10] it was 99 µM.
With `O=[N+]([O-])c1cc(C2(N3CCCCC3)CCCCC2)sc1Br`, the TGI in [1] turned out to be 24.6 µM; in [2], 10.7 µM; in test [3], 23.5 µM; in test [4], 4.64 µM; in test [5], 31.2 µM; in test [6], 18.7 µM. Also, the TGI is 17.3 µM in [7], 13.2 µM in test [8], 25.1 µM in [9] and 23.3 µM in [10].
